Data from article PMC3804415 (Bioorganic & medicinal chemistry, 2013).

Molecular target: T1, human QR2 (Homo sapiens, UniProt P16083)
T1 sequence (P16083 1-231): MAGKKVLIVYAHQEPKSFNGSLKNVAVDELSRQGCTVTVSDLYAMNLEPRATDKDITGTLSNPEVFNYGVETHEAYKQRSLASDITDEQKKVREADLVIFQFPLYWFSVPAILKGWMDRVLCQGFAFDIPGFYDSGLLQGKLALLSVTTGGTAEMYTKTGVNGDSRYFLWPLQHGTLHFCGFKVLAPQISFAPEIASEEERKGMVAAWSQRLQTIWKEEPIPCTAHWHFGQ
Assay: Steady-state kinetic assay of QR2 inhibition
Type: biochemical
Conditions: for average percent inhibition of QR2: at 100 μM inhibitor; for inhibition at 100 µM: read-out: average percent inhibition of QR2

Compound | average percent inhibition of QR2 | inhibition at 100 µM [%]
CN(C)c1ccc(C(=O)Nc2cc(O)cc(O)c2)cc1 [Analogue 8k, N-(3,5-dihydroxyphenyl)-4-(dimethylamino)benzamide] | eliminates inhibition of QR2 | –
CN(C)c1ccc(NC(=O)c2ccc(O)cc2)cc1 [Analogue 8f, N-(4-(dimethylamino)phenyl)-4-hydroxybenzamide] | eliminates inhibition of QR2 | –
CC(C)Oc1cc(/C=C(\C#N)c2ccc(O)cc2)cc(OC(C)C)c1 [Analogue 4a, (Z)-3-(3,5-diisopropoxyphenyl)-2-(4-hydroxyphenyl)acrylonitrile] | – | ≤ 20
COc1ccc(/C(C#N)=C/c2cc(OC(C)C)cc(OC(C)C)c2)cc1 [Analogue 4c, (Z)-3-(3,5-diisopropoxyphenyl)-2-(4-methoxyphenyl)acrylonitrile] | – | ≤ 20
COc1cc(OC)cc(C(=O)Nc2ccc3ccccc3c2)c1 [Analogue 8p, 3,5-dimethoxy-N-(naphthalen-2-yl)benzamide] | no inhibition of QR2 | –
